Where “and” joins values, the source holds several entries; their conditions need not be identical. Equal values may be shown once. Read-outs that look alike come from different tables or passages of the source.
Legend:
PfENT1 [1] = biological target: T1, PfENT1 (Plasmodium falciparum, UniProt Q8IDM6); assay: ITC binding to PfENT1; conditions: for Kd: 25 °C, 25 mM MES pH 6.0, 150 mM NaCl, 0.05% DDM
T1 construct: 10xHis (N); made in house; host or cells: Sf9 insect cells (baculovirus)
Protocol: (§1) All the constructs were subcloned and inserted into a modified pFastBac with an N-terminal 10 × His tag. The baculovirus was generated in DH10Bac for recombinant protein expression. After 72 h of infection, Sf9 insect cells were harvested. For structural determination of the PfENT1 protein, Sf9 cells were solubilized in buffer containing 25 mM MES (pH 6.0), 150 mM NaCl, 2% (w/v) n-dodecyl-β-D-maltopyranoside (DDM), and protease inhibitor cocktail (0.8 μM aprotinin, 2 μM pepstatin, and 5 μg/ml leupeptin) at 4 °C for 2 h. After centrifugation at 18,000 rpm for 45 min at 4 °C, the detergent-soluble supernatant was collected via centrifugation at 4 °C for 60 min and incubated with Ni-NTA resin (QIAGEN) at 4 °C for 20 min. The resin was further washed with 25 mM MES pH 6.0, 150 mM NaCl, 10 mM imidazole, and 0.05% (w/v) DDM and eluted with buffer containing 25 mM MES pH 6.0, 150 mM NaCl, 300 mM imidazole, and 0.05% (w/v) DDM. The protein was further purified via size-exclusion chromatography (Superdex 200 Increase 10/300; GE Healthcare) in buffer containing 25 mM MES (pH 6.0), 150 mM NaCl, and 0.05% (w/v) DDM. The peak fractions were pooled and concentrated to 10∼50 μM for the nucleoside-binding assay. The protein purification of the bacterial nucleoside transporter NupG was performed as described in previous studies ([35]).
(§2) […] binding to ENTs was measured at 25 °C via a MicroCal PEAQ-ITC. The purified ENT protein was concentrated to 25 to 50 μM for ITC experiments. The nucleoside was diluted to 5 mM via the same buffer employed for protein purification, which consisted of 25 mM MES (pH 6.0), 150 mM NaCl, and 0.05% DDM. The inhibitor was diluted to 250 μM via the same buffer employed for protein purification, which consisted of 25 mM MES (pH 6.0), 150 mM NaCl, and 0.05% DDM. All the titrations were repeated three times.

PbENT1 = biological target: T2, PbENT1 (Plasmodium berghei, UniProt A0A509AYF4); assay: ITC binding to PbENT1; conditions: for Kd: 25 °C, 25 mM MES pH 6.0, 150 mM NaCl, 0.05% DDM
T2 construct: 10xHis (N); made in house; host or cells: Sf9 insect cells (baculovirus)
T2 sequence (A0A509AYF4 1-412): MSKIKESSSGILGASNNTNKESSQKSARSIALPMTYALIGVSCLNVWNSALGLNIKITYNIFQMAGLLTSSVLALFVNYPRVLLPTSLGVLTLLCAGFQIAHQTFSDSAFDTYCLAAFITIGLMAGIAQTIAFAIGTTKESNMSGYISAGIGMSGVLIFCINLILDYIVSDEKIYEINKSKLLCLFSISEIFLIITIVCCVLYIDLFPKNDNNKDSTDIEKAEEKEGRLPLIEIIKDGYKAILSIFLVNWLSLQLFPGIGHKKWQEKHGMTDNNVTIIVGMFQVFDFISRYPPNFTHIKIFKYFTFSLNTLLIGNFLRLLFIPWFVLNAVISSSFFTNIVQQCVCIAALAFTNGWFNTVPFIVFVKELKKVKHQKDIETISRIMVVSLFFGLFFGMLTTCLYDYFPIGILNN
Protocol: as §1, §2

PfENT1 [2] = biological target: T1, PfENT1; parameters: method as in PMID 36977719; conditions: competition assay; cited from earlier work
PvENT1 = biological target: T3, PvENT1 (Plasmodium vivax, UniProt A5K8B0); assay: ITC binding to PvENT1; conditions: for Kd: 25 °C, 25 mM MES pH 6.0, 150 mM NaCl, 0.05% DDM
T3 construct: 10xHis (N); made in house; host or cells: Sf9 insect cells (baculovirus)
T3 sequence (A5K8B0 1-416): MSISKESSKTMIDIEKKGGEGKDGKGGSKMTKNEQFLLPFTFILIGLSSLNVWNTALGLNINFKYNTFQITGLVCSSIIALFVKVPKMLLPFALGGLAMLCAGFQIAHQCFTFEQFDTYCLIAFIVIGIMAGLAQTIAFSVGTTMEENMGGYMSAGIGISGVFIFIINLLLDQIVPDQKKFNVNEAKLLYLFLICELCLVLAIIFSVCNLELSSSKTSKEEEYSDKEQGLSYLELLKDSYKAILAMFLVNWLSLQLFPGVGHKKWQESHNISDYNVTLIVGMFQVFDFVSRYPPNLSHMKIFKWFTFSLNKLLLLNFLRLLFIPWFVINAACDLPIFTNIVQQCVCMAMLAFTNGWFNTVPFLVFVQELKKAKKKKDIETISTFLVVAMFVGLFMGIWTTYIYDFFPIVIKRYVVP
Protocol: as §1, §2

PfENT1S49C = biological target: T4, PfENT1S49C (Plasmodium falciparum, UniProt Q8IDM6, S49C); assay: ITC binding to PfENT1S49C
T4 construct: 10xHis (N); made in house; host or cells: Sf9 insect cells (baculovirus)
T4 sequence (Q8IDM6 whole entry S49C): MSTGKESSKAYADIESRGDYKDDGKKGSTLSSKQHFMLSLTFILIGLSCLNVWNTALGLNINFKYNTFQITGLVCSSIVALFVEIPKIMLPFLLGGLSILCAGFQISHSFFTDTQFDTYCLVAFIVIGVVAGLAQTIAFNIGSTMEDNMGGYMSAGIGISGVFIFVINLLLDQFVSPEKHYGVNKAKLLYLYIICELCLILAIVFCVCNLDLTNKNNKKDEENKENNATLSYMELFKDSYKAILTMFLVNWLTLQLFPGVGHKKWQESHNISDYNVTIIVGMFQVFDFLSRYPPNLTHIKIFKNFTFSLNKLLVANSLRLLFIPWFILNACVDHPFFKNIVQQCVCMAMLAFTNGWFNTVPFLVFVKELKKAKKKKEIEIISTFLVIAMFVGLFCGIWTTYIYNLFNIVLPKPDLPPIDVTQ
Protocol: as §1, with “The protein purification of the bacterial nucleoside transporter NupG was performed as described in previous studies ([35]).” left out
(§3) […] binding to ENTs was measured at 25 °C via a MicroCal PEAQ-ITC. […]

PbENT1C43S = biological target: T5, PbENT1C43S (Plasmodium berghei, UniProt A0A509AYF4, C43S); assay: ITC binding to PbENT1C43S
T5 construct: 10xHis (N); made in house; host or cells: Sf9 insect cells (baculovirus)
T5 sequence (A0A509AYF4 whole entry C43S): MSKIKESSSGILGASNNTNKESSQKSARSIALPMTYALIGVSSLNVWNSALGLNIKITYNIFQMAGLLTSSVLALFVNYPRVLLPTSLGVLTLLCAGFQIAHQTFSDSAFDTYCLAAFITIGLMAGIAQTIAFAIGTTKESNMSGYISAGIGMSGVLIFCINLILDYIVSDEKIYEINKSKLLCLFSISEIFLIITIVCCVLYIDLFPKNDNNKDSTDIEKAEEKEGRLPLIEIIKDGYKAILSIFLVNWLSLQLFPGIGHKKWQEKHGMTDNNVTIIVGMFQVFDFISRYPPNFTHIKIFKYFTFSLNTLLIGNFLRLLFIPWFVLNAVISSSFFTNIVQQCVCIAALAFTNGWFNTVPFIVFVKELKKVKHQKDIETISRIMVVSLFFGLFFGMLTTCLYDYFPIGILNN
Protocol: as §1, §2

PfENT1I70M = biological target: T6, PfENT1I70M (Plasmodium falciparum, UniProt Q8IDM6, I70M); assay: ITC binding to PfENT1I70M
T6 construct: 10xHis (N); made in house; host or cells: Sf9 insect cells (baculovirus)
T6 sequence (Q8IDM6 1-422 I70M): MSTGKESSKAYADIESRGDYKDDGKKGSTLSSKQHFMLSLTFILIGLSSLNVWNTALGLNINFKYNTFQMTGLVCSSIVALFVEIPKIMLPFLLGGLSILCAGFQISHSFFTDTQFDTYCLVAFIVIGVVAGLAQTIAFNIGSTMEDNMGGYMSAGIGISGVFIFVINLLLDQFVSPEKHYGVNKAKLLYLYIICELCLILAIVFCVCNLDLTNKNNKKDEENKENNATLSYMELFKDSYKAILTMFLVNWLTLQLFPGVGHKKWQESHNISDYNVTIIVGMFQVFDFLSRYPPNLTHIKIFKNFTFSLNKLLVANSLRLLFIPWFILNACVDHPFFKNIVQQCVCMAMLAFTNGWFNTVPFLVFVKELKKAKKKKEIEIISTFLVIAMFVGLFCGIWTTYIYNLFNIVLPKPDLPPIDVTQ
Protocol: as §1, with “The protein purification of the bacterial nucleoside transporter NupG was performed as described in previous studies ([35]).” left out
as §3

PbENT1M64I = biological target: T7, PbENT1M64I (Plasmodium berghei, UniProt A0A509AYF4, M64I); assay: ITC binding to PbENT1M64I
T7 construct: 10xHis (N); made in house; host or cells: Sf9 insect cells (baculovirus)
T7 sequence (A0A509AYF4 whole entry M64I): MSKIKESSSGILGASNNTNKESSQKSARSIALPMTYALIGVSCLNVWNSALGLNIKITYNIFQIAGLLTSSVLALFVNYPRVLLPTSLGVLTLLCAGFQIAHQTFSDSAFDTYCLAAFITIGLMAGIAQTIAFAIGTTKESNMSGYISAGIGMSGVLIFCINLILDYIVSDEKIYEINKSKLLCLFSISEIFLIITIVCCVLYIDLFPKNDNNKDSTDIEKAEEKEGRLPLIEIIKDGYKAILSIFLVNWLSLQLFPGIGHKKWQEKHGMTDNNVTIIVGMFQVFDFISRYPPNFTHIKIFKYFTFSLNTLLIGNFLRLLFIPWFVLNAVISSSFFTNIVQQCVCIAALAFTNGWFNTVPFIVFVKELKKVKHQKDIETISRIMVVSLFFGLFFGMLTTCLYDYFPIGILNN
Protocol: as §1, with “The protein purification of the bacterial nucleoside transporter NupG was performed as described in previous studies ([35]).” left out
as §3

PfENT1M389L = biological target: T8, PfENT1M389L (Plasmodium falciparum, UniProt Q8IDM6, M389L); assay: ITC binding to PfENT1M389L
T8 construct: 10xHis (N); made in house; host or cells: Sf9 insect cells (baculovirus)
T8 sequence (Q8IDM6 whole entry M389L): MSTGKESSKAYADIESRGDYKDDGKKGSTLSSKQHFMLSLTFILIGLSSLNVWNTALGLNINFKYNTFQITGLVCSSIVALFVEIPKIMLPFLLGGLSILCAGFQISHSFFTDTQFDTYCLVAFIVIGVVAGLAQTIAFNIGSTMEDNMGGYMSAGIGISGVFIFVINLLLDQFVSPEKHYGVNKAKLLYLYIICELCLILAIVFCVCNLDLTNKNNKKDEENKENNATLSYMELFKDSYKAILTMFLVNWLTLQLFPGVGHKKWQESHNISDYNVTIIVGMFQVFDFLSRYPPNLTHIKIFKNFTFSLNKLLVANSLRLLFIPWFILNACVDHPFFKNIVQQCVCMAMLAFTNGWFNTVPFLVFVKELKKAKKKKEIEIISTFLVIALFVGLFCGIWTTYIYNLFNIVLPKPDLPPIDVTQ
Protocol: as §1, §2

PbENT1L388M = biological target: T9, PbENT1L388M (Plasmodium berghei, UniProt A0A509AYF4, L388M); assay: ITC binding to PbENT1L388M
T9 construct: 10xHis (N); made in house; host or cells: Sf9 insect cells (baculovirus)
T9 sequence (A0A509AYF4 whole entry L388M): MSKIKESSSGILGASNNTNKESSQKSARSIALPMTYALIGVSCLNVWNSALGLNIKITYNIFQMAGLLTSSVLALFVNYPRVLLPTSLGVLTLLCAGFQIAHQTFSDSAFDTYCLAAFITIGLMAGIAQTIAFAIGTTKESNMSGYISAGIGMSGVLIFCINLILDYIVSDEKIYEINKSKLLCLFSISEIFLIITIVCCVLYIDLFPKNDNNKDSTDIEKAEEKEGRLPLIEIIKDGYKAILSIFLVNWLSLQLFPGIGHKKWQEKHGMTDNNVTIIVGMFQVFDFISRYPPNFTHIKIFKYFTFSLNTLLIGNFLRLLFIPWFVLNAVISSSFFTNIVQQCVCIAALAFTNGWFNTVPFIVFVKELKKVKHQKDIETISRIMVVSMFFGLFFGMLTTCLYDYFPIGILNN
Protocol: as §1, with “The protein purification of the bacterial nucleoside transporter NupG was performed as described in previous studies ([35]).” left out
as §3

[3] = read-out: Kd (binding affinity for PbENT1)
[4] = read-out: Kd (binding affinity for PfENT1)
[5] = read-out: Kd (binding affinity for PvENT1)
[6] = Kd (binding affinity for PfENT1)

T1 sequence (Q8IDM6 whole entry): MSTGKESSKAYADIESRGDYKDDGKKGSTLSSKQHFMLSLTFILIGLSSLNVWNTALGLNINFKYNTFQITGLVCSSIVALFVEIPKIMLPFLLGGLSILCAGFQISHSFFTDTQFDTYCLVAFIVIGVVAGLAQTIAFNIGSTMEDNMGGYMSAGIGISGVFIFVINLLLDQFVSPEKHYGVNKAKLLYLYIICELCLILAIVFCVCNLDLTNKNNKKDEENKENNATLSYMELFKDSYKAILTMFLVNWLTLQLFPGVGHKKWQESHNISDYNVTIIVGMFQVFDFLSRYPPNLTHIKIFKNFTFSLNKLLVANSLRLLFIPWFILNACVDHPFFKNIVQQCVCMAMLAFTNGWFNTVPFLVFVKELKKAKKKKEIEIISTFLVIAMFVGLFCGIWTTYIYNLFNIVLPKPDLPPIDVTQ

Cc1cn([C@H]2C[C@H](O)[C@@H](CO)O2)c(=O)[nH]c1=O [thymidine]
binding affinity for PfENT1 (in words) (PfENT1 [1]; PfENT1 WT): undetectable
binding affinity for PbENT1 (in words) (PbENT1): weak
inhibition of the inosine transport activity of PfENT1 (PfENT1 [2]): effectively inhibited

Nc1ccn([C@@H]2O[C@H](CO)[C@@H](O)[C@H]2O)c(=O)n1 [cytidine]
binding affinity for PbENT1 (in words) (PbENT1): No binding affinity was detected

O=c1[nH]c(=O)c2ncn([C@@H]3O[C@H](CO)[C@@H](O)[C@H]3O)c2[nH]1 [xanthosine]
Kd (PvENT1; Kd (binding affinity for PvENT1)): 114 µM and 122 µM and 107 µM
Kd (PbENT1; Kd (binding affinity for PbENT1)): 88.2 µM and 92.8 µM and 95.5 µM

Cc1oc(-c2ccc(Cl)cc2)nc1C(=O)NCCN1CCCCCC1=O [GSK4-1]
decrease in binding affinity for PfENT1 (versus GSK4) (PfENT1 [1]): 3.5 fold

Nc1ncnc2c1ncn2[C@@H]1O[C@H](CO)[C@@H](O)[C@H]1O [adenosine]
Kd (PbENT1; [3]): 38.1 µM and 36.6 µM and 40.5 µM
thermodynamic pattern of binding to PfENT1S49C (PfENT1S49C): enthalpy-driven
binding to PbENT1C43S (in words) (PbENT1C43S): did not show detectable adenosine binding
inhibition of the inosine transport activity of PfENT1 (PfENT1 [2]): effectively inhibited

Cc1oc(-c2ccccc2Cl)nc1C(=O)NCCN1CCCCCC1=O [GSK4-2]
decrease in binding affinity for PfENT1 (versus GSK4) (PfENT1 [1]): 1.6 fold

OC[C@H]1O[C@@H](n2cnc3c(O)ncnc32)[C@H](O)[C@@H]1O [inosine]
Kd (PfENT1 [1]; [4]): ~64.2 µM
Kd (PvENT1; [5]): ~146 µM and 146 µM and 161 µM and 173 µM
Kd (PbENT1; [3]): 13.6 µM and 6.11 µM and 13.5 µM
Kd (PfENT1I70M; 25 °C, pH 6.0): 58.3 µM and 78.5 µM and 65.3 µM
Kd (PbENT1M64I; Kd (binding to PbENT1M64I), 25 °C, pH 6.0): 61.6 µM and 53.5 µM and 58.9 µM
Kd (PbENT1C43S; Kd (binding to PbENT1C43S), 25 °C, pH 6.0): 51.4 µM and 55.9 µM and 58.4 µM

O=c1[nH]cnc2c1ncn2[C@@H]1O[C@H](CO)[C@@H](O)[C@H]1O [inosine]
thermodynamic pattern of binding to PfENT1 (PfENT1 [1]): entropy-driven
Kd (PfENT1 [1]; [4]): 77.3 µM
ΔH of binding to PfENT1 (PfENT1 [1]; endothermic reaction): > 0
thermodynamic pattern of binding to PvENT1 (PvENT1): enthalpy-entropy compensation
ΔH of binding to PvENT1 (PvENT1; exothermic reaction): < 0
thermodynamic pattern of binding to PbENT1 (PbENT1): enthalpy-driven
ΔH of binding to PbENT1 (PbENT1; exothermic reaction): < 0
affinity for PfENT1I70M (in words) (PfENT1I70M; compared with PfENT1): comparable affinity
binding to PfENT1S49C (in words) (PfENT1S49C): complete abolishment
binding affinity of PbENT1M64I relative to WT PbENT1 (PbENT1M64I): fivefold lower
binding affinity of PbENT1C43S relative to WT PbENT1 (PbENT1C43S): fivefold lower

Cc1oc(-c2ccccc2)nc1C(=O)NCCN1CCCCCC1=O [GSK4]
Kd (PfENT1 [1]; [6]): 0.0381 µM and 0.0519 µM and 0.0481 µM
Kd (PvENT1; [5]): 0.0543 µM and 0.0372 µM and ~0.0472 µM and 0.0472 µM
Kd (PbENT1; [3]): 15.4 µM and 4.92 µM and 12.6 µM
binding affinity of PfENT1M389L relative to PfENT1WT (PfENT1M389L): five times weaker
Kd (PfENT1M389L; Kd (binding to PfENT1M389L), 25 °C, pH 6.0): 234 nM and 317 nM and 276 nM
binding affinity of PbENT1L388M relative to PbENT1WT (PbENT1L388M): five times greater
Kd (PbENT1L388M; Kd (binding to PbENT1L388M), 25 °C, pH 6.0): 2590 nM and 2090 nM and 2770 nM

Nc1nc2c(ncn2[C@@H]2O[C@H](CO)[C@@H](O)[C@H]2O)c(=O)[nH]1 [guanosine]
Kd (PfENT1 [1]; [6]): ~179 µM
Kd (PvENT1; [5]): ~49.3 µM and 49.3 µM and 50.5 µM and 46.3 µM
Kd (PbENT1; [3]): 15.6 µM and 8.69 µM and 11.3 µM

O=c1ccn([C@@H]2O[C@H](CO)[C@@H](O)[C@H]2O)c(=O)[nH]1 [uridine]
binding affinity for PbENT1 (in words) (PbENT1): No binding affinity was detected
